These are literature values, as cited in patent US7470509B2, “Compositions and methods for the identification, assessment, prevention and therapy of ovarian cancer” (Millennium Pharmaceuticals, Inc., priority 2002, dated 2008).

For this data set, the system named is tumor. The following applies: U.S. Pat. No. 5,840,929.

For `CC(=O)O[C@@]12CO[C@@H]1C[C@H](O)[C@@]1(C)C(=O)[C@H](O)C3=C(C)[C@@H](OC(=O)[C@H](O)[C@@H](NC(=O)OC(C)(C)C)c4ccccc4)C[C@@](O)([C@@H](OC(=O)c4ccccc4)[C@H]21)C3(C)C` [Taxotere, docetaxel], the “anti-tumor activity in animal models” value is given as “good anti-tumor activity”.
